Bridge positions count the residues as written; N and C are the ends. Square brackets hold non-standard residues; d marks the D form. Peptide text beside a SMILES is read from it. * marks the point of attachment. ξ: configuration not given here. Ala(morpholin-4-yl) = N[C@@H](CN1CCOCC1)C(=O)O; Phe(4-COOH) = N[C@@H](Cc1ccc(C(=O)O)cc1)C(=O)O; Bip = N[C@@H](Cc1ccc(-c2ccccc2)cc1)C(=O)O; Phe(3-CN) = N#Cc1cccc(C[C@H](N)C(=O)O)c1; Phe(3-Me) = Cc1cccc(C[C@H](N)C(=O)O)c1; Phe(4-F) = N[C@@H](Cc1ccc(F)cc1)C(=O)O; 2Nal = N[C@@H](Cc1ccc2ccccc2c1)C(=O)O; Val(3-OH) = CC(C)(O)[C@H](N)C(=O)O; 4Pal = N[C@@H](Cc1ccncc1)C(=O)O; Cha = N[C@@H](CC1CCCCC1)C(=O)O; Cit = NC(=O)NCCC[C@H](N)C(=O)O; dChg = N[C@@H](C(=O)O)C1CCCCC1; Thr(3ξ) = CC(O)[C@H](N)C(=O)O; Carboxymethyl = O=C(O)C*; NMeA = CN[C@@H](C)C(=O)O; Orn = NCCC[C@H](N)C(=O)O; Dab = NCC[C@H](N)C(=O)O; Dap = NC[C@H](N)C(=O)O
Target: T1, PE-labeled human PD-L1-Ig binding to Jurkat cell line over-expressing human PD-1 (Jurkat-PD-1) (Homo sapiens, UniProt Q15116)
T1 construct: expressed in transfected cells; host or cells: Jurkat
T1 sequence (Q15116 25-288): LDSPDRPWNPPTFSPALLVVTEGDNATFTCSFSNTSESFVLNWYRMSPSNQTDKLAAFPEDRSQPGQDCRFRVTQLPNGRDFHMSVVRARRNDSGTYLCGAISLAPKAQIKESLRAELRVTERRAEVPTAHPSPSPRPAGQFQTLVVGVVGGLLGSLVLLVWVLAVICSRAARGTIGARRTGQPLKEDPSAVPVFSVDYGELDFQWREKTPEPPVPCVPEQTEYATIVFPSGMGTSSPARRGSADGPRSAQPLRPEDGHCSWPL
Test: Jurkat-PD-1 Cell Binding High-Content Screening Assay (CBA): Method 1
Conditions: Jurkat-PD-1 cells, PE-labeled PD-L1-Ig; μM; read-out: CBA Method 1 μM

With `Cc1cccc(C[C@@H]2NC(=O)[C@H](CC(=O)O)NC(=O)[C@H](Cc3ccc(OCC(=O)O)cc3)NC(=O)[C@H](CN3CCOCC3)NC(=O)CSC[C@@H](C(=O)N[C@@H](CCN)C(N)=O)NC(=O)[C@H](CCCN)NC(=O)[C@H](C(C)C)NC(=O)[C@H](Cc3ccc4ccccc4c3)NC(=O)[C@H](CCN)NC(=O)[C@@H](CC(C)C)NC(=O)[C@H](C)N(C)C(=O)[C@H](CCC(N)=O)NC(=O)[C@H](Cc3ccc(-c4ccccc4)cc3)NC(=O)[C@H](Cc3ccc(C(=O)O)cc3)NC2=O)c1` [Example 5044] ({CH2CO}-[Ala(morpholin-4-yl)]Y(Carboxymethyl)D[Phe(3-Me)][Phe(4-COOH)][Bip]Q[NMeA][dL][Dab][2Nal]V[Orn]C[Dab]-NH2; thioether N-14) as the molecule, how does the IC50 read?
Its IC50 is 0.131 µM.

Same assay, conditions: Jurkat-hPD-1 cells, PE-labeled PD-L1-Ig 20 nM final; read-out: Jurkat HPDL1 PD1 IC50 (uM) (Method 1)

`CC(C)C[C@@H]1NC(=O)[C@H](CCN)NC(=O)[C@@H](CC(C)C)NC(=O)[C@H](C)N(C)C(=O)[C@H](CCCNC(N)=O)NC(=O)[C@H](Cc2ccc(-c3ccccc3)cc2)NC(=O)[C@H](C(C)C)NC(=O)[C@H](Cc2c[nH]c3ccccc23)NC(=O)[C@H](CC(=O)O)NC(=O)[C@H](Cc2ccc(O)cc2)NC(=O)[C@H](CCCCN)NC(=O)CSC[C@@H](C(=O)N[C@@H](C)C(N)=O)NC(=O)[C@H]([C@@H](C)O)NC(=O)[C@H](C(C)C)NC1=O` [Compound 1348] ({CH2CO}-KYDWV[Bip][Cit][NMeA][dL][Dab]LVTCA-NH2; thioether N-14) was tested. Which IC50 did it give?
The IC50 was 0.05 µM.

For `Cc1cccc(C[C@@H]2NC(=O)[C@H](CC(=O)O)NC(=O)[C@H](Cc3ccc(OCC(=O)O)cc3)NC(=O)[C@H](Cc3ccncc3)NC(=O)CSC[C@@H](C(N)=O)NC(=O)[C@H](CC(=O)O)NC(=O)[C@H](C(C)C)NC(=O)[C@H](CC3CCCCC3)NC(=O)[C@H](CCN)NC(=O)[C@@H](CC(C)C)NC(=O)[C@H](C)N(C)C(=O)[C@H](Cc3ccc(OCC(=O)O)cc3)NC(=O)[C@H](Cc3ccc(-c4ccccc4)cc3)NC(=O)[C@H](Cc3ccc(OCC(=O)O)cc3)NC2=O)c1` [Compound 1658] ({CH2CO}-[4Pal]Y(Carboxymethyl)D[Phe(3-Me)]Y(Carboxymethyl)[Bip]Y(Carboxymethyl)[NMeA][dL][Dab][Cha]VDC-NH2; thioether N-14), which IC50 is on record?
The IC50 was 0.03 µM.

How did the IC50 turn out when `Cc1cccc(C[C@@H]2NC(=O)[C@H](CC(=O)O)NC(=O)[C@H](Cc3ccc(C(=O)O)cc3)NC(=O)[C@H](Cc3ccc(F)cc3)NC(=O)CSC[C@@H](C(=O)N[C@@H](CCN)C(N)=O)NC(=O)[C@H](CCC(=O)O)NC(=O)[C@H](C(C)(C)O)NC(=O)[C@H](CC3CCCCC3)NC(=O)[C@H](CCN)NC(=O)[C@@H](CC(C)C)NC(=O)[C@H](C)N(C)C(=O)[C@H](Cc3ccc(C(=O)O)cc3)NC(=O)[C@H](Cc3ccc(-c4ccccc4)cc3)NC(=O)[C@H](Cc3ccc(C(=O)O)cc3)NC2=O)c1` [Compound 2207] ({CH2CO}-[Phe(4-F)][Phe(4-COOH)]D[Phe(3-Me)][Phe(4-COOH)][Bip][Phe(4-COOH)][NMeA][dL][Dab][Cha][Val(3-OH)]EC[Dab]-NH2; thioether N-14) was run?
Its IC50 is 0.01 µM.

Which IC50 does the source give for `Cc1cccc(C[C@@H]2NC(=O)[C@H](CC(=O)O)NC(=O)[C@H](Cc3ccncc3)NC(=O)[C@H](CN)NC(=O)CSC[C@@H](C(=O)N[C@@H](C)C(N)=O)NC(=O)[C@H]([C@@H](C)O)NC(=O)[C@H](C(C)C)NC(=O)[C@H](CC(C)C)NC(=O)[C@H](CCN)NC(=O)[C@@H](CC(C)C)NC(=O)[C@H](C)N(C)C(=O)[C@H](C(C)C)NC(=O)[C@H](Cc3ccc(-c4ccccc4)cc3)NC(=O)[C@H](C(C)C)NC2=O)c1` [Compound 1543] ({CH2CO}-[Dap][4Pal]D[Phe(3-Me)]V[Bip]V[NMeA][dL][Dab]LVTCA-NH2; thioether N-14) here?
Its IC50 is 0.01 µM.

Which IC50 does the source give for `CC(C)C[C@@H]1NC(=O)[C@H](CCCNC(=N)N)NC(=O)[C@@H](C2CCCCC2)NC(=O)[C@H](C)N(C)C(=O)[C@H](CCCNC(=N)N)NC(=O)[C@H](Cc2ccc(-c3ccccc3)cc2)NC(=O)[C@H](C(C)C)NC(=O)[C@H](Cc2c[nH]c3ccccc23)NC(=O)[C@H](CC(=O)O)NC(=O)[C@H](Cc2ccc(O)cc2)NC(=O)[C@H](Cc2ccccc2)NC(=O)CSC[C@@H](C(=O)N[C@@H](C)C(N)=O)NC(=O)[C@H]([C@@H](C)O)NC(=O)[C@H](C(C)C)NC1=O` [Compound 1061] ({CH2CO}-FYDWV[Bip]R[NMeA][dChg]RLVTCA-NH2; thioether N-14) here?
The IC50 was 0.1 µM.

With `Cc1cccc(C[C@@H]2NC(=O)[C@H](CC(=O)O)NC(=O)[C@H](Cc3ccc(OCC(=O)O)cc3)NC(=O)[C@H](C(C)O)NC(=O)CSC[C@@H](C(=O)N[C@@H](CCN)C(N)=O)NC(=O)[C@H](CO)NC(=O)[C@H](C(C)(C)O)NC(=O)[C@H](CC3CCCCC3)NC(=O)[C@H](CCN)NC(=O)[C@@H](CC(C)C)NC(=O)[C@H](C)N(C)C(=O)[C@H](Cc3ccc(OCC(=O)O)cc3)NC(=O)[C@H](Cc3ccc(-c4ccccc4)cc3)NC(=O)[C@H](Cc3ccc(C(=O)O)cc3)NC2=O)c1` (stereo partly drawn) [Compound 2150] ({CH2CO}-[Thr(3ξ)]Y(Carboxymethyl)D[Phe(3-Me)][Phe(4-COOH)][Bip]Y(Carboxymethyl)[NMeA][dL][Dab][Cha][Val(3-OH)]SC[Dab]-NH2; thioether N-14) as the molecule, how does the IC50 read?
Its IC50 is 0.01 µM.

With `CC(C)C[C@@H]1NC(=O)[C@H](CCN)NC(=O)[C@@H](CC(C)C)NC(=O)[C@H](C)N(C)C(=O)[C@H](CC(C)C)NC(=O)[C@H](Cc2ccc(-c3ccccc3)cc2)NC(=O)[C@H](C(C)C)NC(=O)[C@H](Cc2c[nH]c3ccccc23)NC(=O)[C@H](CC(=O)O)NC(=O)[C@H](Cc2ccc(O)cc2)NC(=O)[C@H](CC(N)=O)NC(=O)CSC[C@@H](C(=O)N[C@@H](C)C(N)=O)NC(=O)[C@H]([C@@H](C)O)NC(=O)[C@H](C(C)C)NC1=O` [Compound 1270] ({CH2CO}-NYDWV[Bip]L[NMeA][dL][Dab]LVTCA-NH2; thioether N-14) as the molecule, how does the IC50 read?
Its IC50 is 0.11 µM.

Which IC50 does the source give for `Cc1cccc(C[C@@H]2NC(=O)[C@H](CC(=O)O)NC(=O)[C@H](Cc3ccc(OCC(=O)O)cc3)NC(=O)[C@H](CN)NC(=O)CSC[C@@H](C(N)=O)NC(=O)[C@H](CCC(N)=O)NC(=O)[C@H](C(C)C)NC(=O)[C@H](CC3CCCCC3)NC(=O)[C@H](CCN)NC(=O)[C@@H](CC(C)C)NC(=O)[C@H](C)N(C)C(=O)[C@H](Cc3ccc(OCC(=O)O)cc3)NC(=O)[C@H](Cc3ccc(-c4ccccc4)cc3)NC(=O)[C@H](Cc3ccc(OCC(=O)O)cc3)NC2=O)c1` [Compound 1649] ({CH2CO}-[Dap]Y(Carboxymethyl)D[Phe(3-Me)]Y(Carboxymethyl)[Bip]Y(Carboxymethyl)[NMeA][dL][Dab][Cha]VQC-NH2; thioether N-14) here?
The IC50 was 0.1 µM.

With `CC(C)C[C@@H]1NC(=O)[C@H](CCN)NC(=O)[C@@H](CC(C)C)NC(=O)[C@H](C)N(C)C(=O)[C@H](Cc2cnc[nH]2)NC(=O)[C@H](Cc2ccc(-c3ccccc3)cc2)NC(=O)[C@H](C(C)C)NC(=O)[C@H](Cc2c[nH]c3ccccc23)NC(=O)[C@H](CC(=O)O)NC(=O)[C@H](Cc2cccc(C#N)c2)NC(=O)[C@H](CN)NC(=O)CSC[C@@H](C(=O)N[C@@H](C)C(N)=O)NC(=O)[C@H]([C@@H](C)O)NC(=O)[C@H](C(C)C)NC1=O` [Compound 1432] ({CH2CO}-[Dap][Phe(3-CN)]DWV[Bip]H[NMeA][dL][Dab]LVTCA-NH2; thioether N-14) as the molecule, how does the IC50 read?
Its IC50 is 0.05 µM.

`CC(C)C[C@@H]1NC(=O)[C@H](CCN)NC(=O)[C@@H](CC(C)C)NC(=O)[C@H](C)N(C)C(=O)[C@H](CCCNC(N)=O)NC(=O)[C@H](Cc2ccc(-c3ccccc3)cc2)NC(=O)[C@H](C(C)C)NC(=O)[C@H](Cc2c[nH]c3ccccc23)NC(=O)[C@H](CC(=O)O)NC(=O)[C@H](Cc2ccncc2)NC(=O)[C@H](CN)NC(=O)CSC[C@@H](C(=O)N[C@@H](C)C(N)=O)NC(=O)[C@H]([C@@H](C)O)NC(=O)[C@H](C(C)C)NC1=O` [Compound 1545] ({CH2CO}-[Dap][4Pal]DWV[Bip][Cit][NMeA][dL][Dab]LVTCA-NH2; thioether N-14) was tested. Which IC50 did it give?
Its IC50 is 0.04 µM.

With `CC(C)C[C@H]1NC(=O)[C@H](C)N(C)C(=O)[C@H](C(C)C)NC(=O)[C@H](Cc2ccc(-c3ccccc3)cc2)NC(=O)[C@H](C(C)C)NC(=O)[C@H](Cc2c[nH]c3ccccc23)NC(=O)[C@H](CC(=O)O)NC(=O)[C@H](Cc2ccncc2)NC(=O)[C@H](Cc2ccc(OCC(=O)O)cc2)NC(=O)CSC[C@@H](C(N)=O)NC(=O)[C@H](CO)NC(=O)[C@H](C(C)C)NC(=O)[C@H](CC2CCCCC2)NC(=O)[C@H](CCCCN)NC1=O` [Compound 2245] ({CH2CO}-Y(Carboxymethyl)[4Pal]DWV[Bip]V[NMeA][dL]K[Cha]VSC-NH2; thioether N-14) as the molecule, how does the IC50 read?
Its IC50 is 0.01 µM.

With `CC(C)C[C@@H]1NC(=O)[C@H](Cc2c[nH]c3ccccc23)NC(=O)[C@H](CC(=O)O)NC(=O)[C@H](Cc2ccc(O)cc2)NC(=O)[C@H](Cc2ccccc2)NC(=O)CSC[C@@H](C(=O)N[C@@H](C)C(N)=O)NC(=O)[C@H](CO)NC(=O)[C@H](C(C)C)NC(=O)[C@H](CC(C)C)NC(=O)[C@H](CCCNC(=N)N)NC(=O)[C@@H](C)NC(=O)[C@H](C)N(C)C(=O)[C@H](CCCNC(=N)N)NC(=O)[C@H](Cc2ccc(-c3ccccc3)cc2)NC1=O` [Compound 1782] ({CH2CO}-FYDWL[Bip]R[NMeA][dA]RLVSCA-NH2; thioether N-14) as the molecule, how does the IC50 read?
The IC50 was 0.08 µM.

For `CC(C)C[C@@H]1NC(=O)[C@H](CCN)NC(=O)[C@@H](CC(C)C)NC(=O)[C@H](C)N(C)C(=O)[C@H](CCCNC(N)=O)NC(=O)[C@H](Cc2ccc(-c3ccccc3)cc2)NC(=O)[C@H](C(C)C)NC(=O)[C@H](Cc2c[nH]c3ccccc23)NC(=O)[C@H](CC(=O)O)NC(=O)[C@H](Cc2ccc(OCC(=O)O)cc2)NC(=O)[C@H](CC(N)=O)NC(=O)CSC[C@@H](C(=O)N[C@@H](C)C(N)=O)NC(=O)[C@H]([C@@H](C)O)NC(=O)[C@H](C(C)C)NC1=O` [Compound 1321] ({CH2CO}-NY(Carboxymethyl)DWV[Bip][Cit][NMeA][dL][Dab]LVTCA-NH2; thioether N-14), which IC50 is on record?
The IC50 was 0.08 µM.
